Measurements from patent publication US7129218B2, “Use of rhamnolipids in wound healing, treatment and prevention of gum disease and periodontal regeneration” (Paradigm Biomedical, Inc., priority 1999, dated 2006).

How the values were obtained:
[1] = tested on: neonatal human fibroblast cells; assay: Caspase detection in neonatal human fibroblast cells in FM, fluorescence spectroscopy; assay type: cell-based; conditions: fibroblasts in FM
From the text: The procedure for caspase detection in neonatal human fibroblast cells in fibroblast growth medium FM* treated with BAC-3 using fluorescence spectroscopy.
Note: CaspaTag Fluorescein Caspase Activity Kit (Intergen Company) was used to detect active caspase enzymes with fluorescent spectroscopy. All solutions, except cell medium and PBS, were included with the kit.
12 vials of neonatal human fibroblasts, NHF97-001 passage #3 (prepared as described in section 2.1.a), were retrieved from a liquid N2 chamber. Closed vials were quickly defrosted in a small amount of 37° C., 75% ethanol. […]
Di-rhamnolipid BAC-3 was weighed on the precision balance (Mettler AC100) and dissolved in FM medium to make an aqueous 1 mg/ml di-rhamnolipid BAC-3 stock solution. […] The remaining 9 plates were used as controls: 3 plates for positive apoptosis control (apoptosis induction by UVB+antibody), 3 plates for BAC-3 untreated control and 3 plates for fluorescence control (FAM-VAD-FMK unlabelled cells). […]
On day 6, treatment with BAC-3 was completed and cells were trypsinized and collected into 50 ml centrifuge tubes. Cells were counted using a hemacytometer and a trypan blue exclusion test and densities were adjusted to 1.0×10^6 cells per ml of FM medium. […]

[2] = tested on: neonatal human keratinocyte cells; assay: Caspase detection in neonatal human keratinocyte cells in GM medium (with serum); assay type: cell-based
Method: The procedure for caspase detection in neonatal human keratinocyte cells in GM* medium (with serum) treated with BAC-3 using fluorescence spectroscopy
The same procedure as described for keratinocyte cells in KGM, but with presence of serum (GM). Passage #3 cells were grown in KGM medium for 7 days with one medium change. Plates were irradiated with UVB light for 66 seconds (792 J/m^2)
Cells, at 80% confluence, were administered BAC-3 in GM at 100 μg/ml, 50 μg/ml, 10 μg/ml and 1 μg/ml concentrations. Medium was replaced every two days over the period of 6 days. On day 3, positive apoptosis control was established by irradiating cells with 792 J/m^2 UVB light and incubating them with 1 μg/ml FAS antibody. BAC-3 treated and control cells were harvested and cell densities were adjusted to 1×10^6 cells per ml with FM. 300 μl cell aliquots were labeled with FAM-VAD-FMK, fluorescent-tagged, irreversible caspase inhibitor. Unlabelled inhibitor was washed away with buffer and 100 μl aliquots were read at 485 nm excitation and 535 nm emission with fluorescence detector. Error bars indicate standard deviations.

SMILES: CCCCCCCC(CC(=O)O)OC(=O)CC(CCCCCCC)OC1OC(C)C(O)C(O)C1OC1OC(C)C(O)C(O)C1O [BAC-3, (α-L-rhamnopyranosyl-(1,2)-α-L-rhamnopyranosyl)-3-hyroxydecanoyl-3-hydroxydecanoic acid]
- optimal concentration for inducing apoptosis (caspase activity peak) ([1]; 6 days, tested 100, 50, 10 and 1 μg/ml): 50 µg/mL
- mechanism of cell death at higher concentrations ([1]; higher concentrations of BAC-3 (detergent effect)): cell necrosis
- optimal concentration for inhibiting apoptosis ([2]; keratinocytes in GM with serum, 6 days, tested 100, 50, 10, 1 and 0.5 μg/ml): 50 µg/mL
- effect on apoptosis (caspase enzyme activity) ([2]; keratinocytes in GM, presence of serum): inhibited
